In article PMC9606955, “In Vitro Activity of Essential Oils Distilled from Colombian Plants against Candida auris and Other Candida Species with Different Antifungal Susceptibility Profiles” (Molecules, 2022):
In brackets after ≈: the same amount, converted by molar mass.

What was measured:
[1] = tested on: C. metapsilosis MUM 15.12; experiment: MIC, CLSI M27 broth microdilution; type: cell-based, Candida metapsilosis; conditions: Lodderomyces metapsilosis, MUM15.12, 24 h, read-out: GM MIC
From the text: (§1) The fungal strains used in this study were C. albicans ATCC 10231, C. albicans ATCC 64550, C. parapsilosis ATCC 22019, C. tropicalis ATCC 750, C. tropicalis ATCC 200956 (resistant to azoles and AMB), C. glabrata LMDM 34 (resistant to echinocandins), C. metapsilosis MUM 15.12, C. orthopsilosis MUM 17.13, C. lusitaniae MUM 17.08, C. krusei ATCC 6258 (Issatchenkia orientalis ATCC 6258), and C. auris CDC B11903. Additionally, nine clinical isolates were included: C. parapsilosis Synlab 406 (FLC-resistant) and eight C. auris isolates identified by MALDI-TOF MS (Bruker Daltonics, Bremen, Germany) according to Zhao et al.. These yeasts were cultured on Sabouraud Dextrose Agar (SDA; Sigma-Aldrich, St. Louis, MO, USA) for 24 h at 35 °C.
(§2) Antifungal susceptibility testing was performed according to Clinical and Laboratory Standards Institute M27, 4th Edition (CLSI standard M27, 4th Edition). Some modifications were applied for evaluation of the antifungal activity of EOs and terpenes. Initially, a screening was carried out to determine the antifungal activity of the EOs and of commercial terpenes. Stock concentrations of EOs and terpenes were prepared at 512 µg/mL and an inoculum of 2.5 × 10^3 CFU/mL of each yeast was prepared in RPMI 1640-MOPS (Sigma- Aldrich St. Louis, MO, USA). Thereafter, 100 µL of each stock solution of EOs or terpenes was dispensed in 96-well microdilution plates (Corning®, Costar®, NY, USA) and 100 µL of each yeast inoculum was added. […] Microdilution plates were incubated at 35 °C and, after 24 h, the presence or absence of growth was visually checked using a manual mirror viewer and then compared with the amount of growth in the control (no EO or terpene). Compounds able to inhibit yeast growth were tested to determine the minimal inhibitory concentration (MIC) as follows: 100 µL of 10 two-fold dilutions of the EOs or commercial terpenes was dispensed in 96-well microplates and the yeast inoculum was added. Final concentrations of the EOs or terpenes ranged from 0.5 µg/mL to 256 µg/mL. Microdilution plates were incubated at 35 °C for 24 h. MICs were visually determined at the lowest concentration that produced visual inhibition compared to the growth control. The assays were performed at least three times in duplicate on different days. The results were expressed as geometric means (GM) and ranges. As an antifungal susceptibility testing control, the activity of ITC and AMB against the reference strains C. krusei ATCC 6258 and C. parapsilosis ATCC 22019 was evaluated in all experiments following the CLSI standard M27, 4th Edition. It was mandatory that the MIC values remained in the accepted range.

Candida spp. = experiment: Screening of antifungal activity at 256 µg/mL against twenty strains; type: cell-based; conditions: screening at 256 µg/mL
From the text: as §1
Antifungal susceptibility testing was performed according to Clinical and Laboratory Standards Institute M27, 4th Edition (CLSI standard M27, 4th Edition). Some modifications were applied for evaluation of the antifungal activity of EOs and terpenes. Initially, a screening was carried out to determine the antifungal activity of the EOs and of commercial terpenes. Stock concentrations of EOs and terpenes were prepared at 512 µg/mL and an inoculum of 2.5 × 10^3 CFU/mL of each yeast was prepared in RPMI 1640-MOPS (Sigma- Aldrich St. Louis, MO, USA). Thereafter, 100 µL of each stock solution of EOs or terpenes was dispensed in 96-well microdilution plates (Corning®, Costar®, NY, USA) and 100 µL of each yeast inoculum was added. […] MICs were visually determined at the lowest concentration that produced visual inhibition compared to the growth control. […] The results were expressed as geometric means (GM) and ranges. As an antifungal susceptibility testing control, the activity of ITC and AMB against the reference strains C. krusei ATCC 6258 and C. parapsilosis ATCC 22019 was evaluated in all experiments following the CLSI standard M27, 4th Edition. […]

C. auris = tested on: C. auris; set-up: method as in PMID 31980703; conditions: cited from earlier work
Cytotoxicity, MTT assay = conditions: human, HaCaT keratinocyte cells
Method: Cells were cultured in Dulbecco’s Modified Eagle Medium (DMEM; Sigma-Aldrich, St. Louis, MO, USA) supplemented with 10% fetal bovine serum (Invitrogen, Carlsbad, CA, USA), 1% penicillin, streptomycin, and neomycin (Invitrogen, Carlsbad, CA, USA), and 1% L-glutamine (Invitrogen, Carlsbad, CA, USA) at 37 °C in a humidified atmosphere of 5% CO2. […] Afterwards, the culture medium was removed and 3-(4.5-dimethylthiazol-2-yl)-2.5-diphenyltetrazolium bromide (MTT) (Sigma-Aldrich, St. Louis, MO, USA) at 5 mg/mL was added at 37 °C for 2 h. Subsequently, DMSO was added to dissolve the formazan crystals. Finally, the absorbances were measured with a Multiskan SkyHigh Microplate Spectrophotometer (Thermo Fisher Scientific, Waltham, MA, USA) at λ = 570 nm. The CC50 values were obtained by linear regression analysis with concentration–response curves, which were performed with absorbance data using GraphPad Prism software (Prism 9.3.0, San Diego, CA, USA). The assays were conducted at two separate times in triplicate. The data were expressed as means.

[2] = tested on: C. orthopsilosis MUM 17.13; experiment: MIC, CLSI M27 broth microdilution; type: cell-based, Candida orthopsilosis; conditions: Lodderomyces orthopsilosis, MUM17.13, 24 h, read-out: GM MIC
From the text: as §1, §2

[3] = tested on: C. tropicalis ATCC 200956; experiment: MIC, CLSI M27 broth microdilution; type: cell-based, Candida tropicalis; conditions: Candida tropicalis, ATCC200956, 24 h, read-out: GM MIC
From the text: as §1, §2

C. auris Ca 1 = experiment: MIC, CLSI M27 broth microdilution; type: cell-based, Candida auris
From the text: as §1, §2

C. auris Ca 13 = experiment: MIC, CLSI M27 broth microdilution; type: cell-based, Candida auris
From the text: as §1, §2

C. auris Ca 9 = experiment: MIC, CLSI M27 broth microdilution; type: cell-based, Candida auris; conditions: Candidozyma auris, CA9, 24 h, read-out: GM MIC
From the text: as §1, §2

C. auris Ca 17 = experiment: MIC, CLSI M27 broth microdilution; type: cell-based, Candida auris; conditions: Candidozyma auris, CA17, 24 h, read-out: GM MIC
From the text: as §1, §2

C. auris Ca 41 = experiment: MIC, CLSI M27 broth microdilution; type: cell-based, Candida auris
From the text: as §1, §2

C. auris Ca 45 = experiment: MIC, CLSI M27 broth microdilution; type: cell-based, Candida auris
From the text: as §1, §2

C. auris Ca 32 = experiment: MIC, CLSI M27 broth microdilution; type: cell-based, Candida auris; conditions: Candidozyma auris, CA32, 24 h, read-out: GM MIC
From the text: as §1, §2

C. auris Ca 46 = experiment: MIC, CLSI M27 broth microdilution; type: cell-based, Candida auris; conditions: Candidozyma auris, CA46, 24 h, read-out: GM MIC
From the text: as §1, §2

C. auris CDC B11903 = experiment: MIC, CLSI M27 broth microdilution; type: cell-based, Candida auris
From the text: as §1, §2

C. lusitaniae MUM 17.08 = experiment: MIC, CLSI M27 broth microdilution; type: cell-based, Candida lusitaniae
From the text: as §1, §2

C. krusei ATCC 6258 = experiment: MIC, CLSI M27 broth microdilution; type: cell-based, Candida krusei; conditions: Pichia kudriavzevii, ATCC6258, 24 h, read-out: GM MIC
From the text: as §1, §2

[4] = tested on: C. parapsilosis Synlab 406; experiment: MIC, CLSI M27 broth microdilution; type: cell-based, Candida parapsilosis
From the text: as §1, §2

**Q.** With `Cc1ccc(C(C)C)cc1O` [Carvacrol, carvacrol] as the compound, how does the MIC [1] read?
**A.** Its MIC is 128 µg/mL (≈ 852 µM).

**Q.** What about the “antifungal activity in screening” value (Candida spp.) of the same compound?
**A.** Its value is “active against all tested Candida spp”.

**Q.** What about the MIC Range (C. auris) of the same compound?
**A.** Its MIC Range is 63 to 250 µg/mL.

**Q.** What about the CC50 at 24 h (Cytotoxicity, MTT assay) of the same compound?
**A.** Its CC50 at 24 h is 411 µg/mL (≈ 2730 µM).

**Q.** What about the MIC [2] of the same compound?
**A.** The MIC was 128 µg/mL (≈ 852 µM).

**Q.** And the MIC [3]?
**A.** The MIC was 128 µg/mL (≈ 852 µM).

**Q.** What about the “Range MIC” value (C. auris Ca 1; C. auris Ca 1, EOs and terpenes) of the same compound?
**A.** Its value is 128 to 256 µg/mL.

**Q.** And the MIC (C. auris Ca 1; Candidozyma auris, CA1, 24 h, read-out: GM MIC)?
**A.** The MIC was 181 µg/mL (≈ 1200 µM).

**Q.** And the “Range MIC” value (C. auris Ca 13; C. auris Ca 13, EOs and terpenes)?
**A.** The value was 128 to 256 µg/mL.

**Q.** And the MIC (C. auris Ca 13; Candidozyma auris, CA13, 24 h, read-out: GM MIC)?
**A.** The MIC was 181 µg/mL (≈ 1200 µM).

**Q.** And the MIC (C. auris Ca 9)?
**A.** The MIC was 256 µg/mL (≈ 1700 µM).

**Q.** And the MIC (C. auris Ca 17)?
**A.** Its MIC is 128 µg/mL (≈ 852 µM).

**Q.** What about the “Range MIC” value (C. auris Ca 41; C. auris Ca 41, EOs and terpenes) of the same compound?
**A.** Its value is 64 to 128 µg/mL.

**Q.** And the MIC (C. auris Ca 41; Candidozyma auris, CA41, 24 h, read-out: GM MIC)?
**A.** The MIC was 90.5 µg/mL (≈ 602 µM).

**Q.** What about the “Range MIC” value (C. auris Ca 45; C. auris Ca 45, EOs and terpenes) of the same compound?
**A.** Its value is 64 to 128 µg/mL.

**Q.** What about the MIC (C. auris Ca 45; Candidozyma auris, CA45, 24 h, read-out: GM MIC) of the same compound?
**A.** Its MIC is 90.5 µg/mL (≈ 602 µM).

**Q.** What about the MIC (C. auris Ca 32) of the same compound?
**A.** Its MIC is 64 µg/mL (≈ 426 µM).

**Q.** What about the MIC (C. auris Ca 46) of the same compound?
**A.** Its MIC is 64 µg/mL (≈ 426 µM).

**Q.** What about the “Range MIC” value (C. auris CDC B11903; C. auris CDC B11903, EOs and terpenes) of the same compound?
**A.** Its value is 64 to 128 µg/mL.

**Q.** And the MIC (C. auris CDC B11903; Candidozyma auris, CDCB11903, 24 h, read-out: GM MIC)?
**A.** The MIC was 90.5 µg/mL (≈ 602 µM).

**Q.** What about the “Range MIC” value (C. lusitaniae MUM 17.08; C. lusitaniae MUM 17.08, EOs and terpenes) of the same compound?
**A.** Its value is 128 to 256 µg/mL.

**Q.** And the MIC (C. lusitaniae MUM 17.08; Clavispora lusitaniae, MUM17.08, 24 h, read-out: GM MIC)?
**A.** The MIC was 181 µg/mL (≈ 1200 µM).

**Q.** What about the MIC (C. krusei ATCC 6258) of the same compound?
**A.** Its MIC is 256 µg/mL (≈ 1700 µM).

**Q.** What about the “Range MIC” value ([4]; C. parapsilosis Synlab 406, EOs and terpenes) of the same compound?
**A.** Its value is 32 to 64 µg/mL.

**Q.** What about the MIC ([4]; Lodderomyces parapsilosis, SYNLAB406, 24 h, read-out: GM MIC) of the same compound?
**A.** Its MIC is 45.3 µg/mL (≈ 302 µM).
